Measurements as given in paper doi:10.1101/2021.12.13.472350v1, “An amphipathic and cationic antimicrobial peptide kills colistin resistant Gram-negative pathogens in vivo” (bioRxiv, 2021).
In brackets after ≈: the same amount, converted by molar mass. Marks after values point to notes of the source that are not given here. Peptide text beside a SMILES is read from it.

Assays:
Eschericia coli ST131 = conditions: ST131, ESBL CTX-M-15; MHB-II, 37°C, ~5×10^5 CFU/ml, triplicate
[1] = system: Acinetobacter baumannii CS01
E. coli ESBL20150072 = test: In vivo sepsis/peritonitis mouse infection model; conditions: NMRI mice infected IP
Method: Outbred female NMRI mice (NMRI; weight 26–30 g; Taconic, Denmark) were used throughout the study, as previously described ([69], [70]). […] Colistin is recommended at a dose of 5-10 mg/kg, according to the European Medicines Agency (EMA) ([71]). The animals were kept in Macrolon type III cages in groups of six and allowed free access to feed and water. Experiments were initiated after an acclimatization period of 7 days. Inoculation (bacterial infection) was performed by intraperitoneal (IP) injection of 0.5 ml bacterial suspension containing 2×10^7 CFU/ml and 5% (wt/vol) mucin (Sigma-Aldrich). During experiments, groups of eight mice per cage constituting one experimental unit were randomly assigned to treatment (5 mg/kg ChIP and 10 mg/kg ChIP or colistin 10 mg/kg and 24 mg/kg) or no treatment (vehicle). Peptide and colistin was administered as a single bolus injection IP (volume injected 0.2 ml) at 1 hours and again 3. At various times post-infection, ∼200 µL blood from the jaw/cheek was collected in Eppendorf tubes with anti-coagulate (Sarstedt, Nümbrecht, Germany). Peritoneal lavage was performed by injecting 2.0 ml of sterile physiological saline IP. After 1 minute of abdominal massage, the peritoneum was opened and peritoneal lavage fluid (PLF) withdrawn. PLF was immediately placed in an insulated 4 °C cooling box for transportation and kept on ice at 4 °C. The mouse peritonitis model was repeated in duplicates for E. coli ATCC 25922 and A. baumannii ATCC 19606 nad in triplicate for E. coli ESBL20150072, while only a single experiment was carried out on A. baumannii CR17. Animals were sacrificed at various times prior to and following infection. Data from repeated experiments were pooled for analyses. Quantification of bacterial load was performed by spot plating of blood and peritoneal fluid samples from the mice. Dilution series were made in sterile 0.9% NaCl solution, from which 20 μl was spotted on solid lactose agar plates (Bromthymole Blue plates, SSI Diagnostica). Bacterial counts were recorded after overnight incubation at 37 °C in ambient air. The detection limit was 50 CFU/ml. The clinical condition of the mice was determined using a self-developed clinical score. For this score, mouse behavior and appearance were observed and evaluated for the parameters piloerection, attitude, locomotion, breathing and curiosity and awarded a score from 0 to 5 by a blinded observer. 0 = no clinical signs, 1 = slightly ruffled fur, 2 = ruffled fur and strenuous breathing, 3 = 2 plus lethargy, 4 = 3 plus hunched posture and decreased activity, and 5 = moribund. No significant difference in the clinical score between groups was observed 2 and 4 h post treatment. All mice were recorded for score 2.

[2] = system: Pseudomonas aeruginosa ATCC 27853
[3] = system: Eschericia coli ATCC 25922; type: cell-based
[4] = system: Eschericia coli BW25113 pACYC184; conditions: BW25113 with pACYC184; MHB-II, 37°C, ~5×10^5 CFU/ml, triplicate
[5] = system: Acinetobacter baumannii ATCC 19606; conditions: ATCC 19606
[6] = system: Klebsiella pneumoniae ST512; conditions: ST512, KPC-3, ΔmgrB, L-Ara4N modified, mucoid; MHB-II, 37°C, ~5×10^5 CFU/ml, triplicate
E. coli ATCC 25922 [7] = test: Time kill experiments; type: cell-based; conditions: detection limit 50 CFU
[8] = system: Pseudomonas aeruginosa Q5
Eschericia coli ML-35p = conditions: LacI- LacY- LacZ+, MHB-II, 37°C, ~5×10^5 CFU/ml, triplicate
[9] = system: Acinetobacter baumannii AB176
A. baumannii ATCC 19606 = test: In vivo sepsis/peritonitis mouse infection model; conditions: NMRI mice infected IP, 10 mg/kg IP at 1 and 3 h
E. coli ATCC 25922 [10] = test: In vivo sepsis/peritonitis mouse infection model; conditions: NMRI mice infected IP; 10 mg/ml colistin as printed, IP at 1 and 3 h post infection
[11] = system: Klebsiella pneumoniae ATCC 700603; conditions: ATCC 700603, SHV-18, mucoid; MHB-II, 37°C, ~5×10^5 CFU/ml, triplicate
[12] = system: Acinetobacter baumannii CR17; conditions: CR17, CS01 pmrA::M12K; MHB-II, 37°C, ~5×10^5 CFU/ml, triplicate
[13] = system: Pseudomonas aeruginosa PAO1
[14] = system: Acinetobacter baumannii AB176R; conditions: AB176 lpxD::G739T (ΔlpxD), LPS deficient, MHB-II, 37°C, ~5×10^5 CFU/ml, triplicate
[15] = system: Acinetobacter baumannii AB167R; conditions: AB167 lpxC::ISAba1, LPS deficient, MHB-II, 37°C, ~5×10^5 CFU/ml, triplicate
[16] = system: Acinetobacter baumannii RC64; conditions: RC64, ATCC 19606 pmrB::R134C pmrB::A227V; MHB-II, 37°C, ~5×10^5 CFU/ml, triplicate
[17] = system: Acinetobacter baumannii AB167
[18] = system: Klebsiella pneumoniae ATCC 13883; conditions: ATCC 13883
[19] = system: Pseudomonas aeruginosa SNRC (PAO1 background); conditions: colistin resistance evolved laboratory isolate, MHB-II, 37°C, ~5×10^5 CFU/ml, triplicate

CC[C@H](C)CCCCC(=O)N[C@@H](CCN)C(=O)N[C@H](C(=O)N[C@@H](CCN)C(=O)N[C@H]1CCNC(=O)[C@H]([C@@H](C)O)NC(=O)[C@H](CCN)NC(=O)[C@H](CCN)NC(=O)[C@H](CC(C)C)NC(=O)[C@@H](CC(C)C)NC(=O)[C@H](CCN)NC1=O)[C@@H](C)O [Colistin, colistin] (HELM PEPTIDE1{[CC[C@H](C)CCCCC(=O)[*:2]].[Dab].T.[Dab].[Dab].[Dab].[dL].L.[Dab].[Dab].T}$PEPTIDE1,PEPTIDE1,5:R3-11:R2$$$V2.0; N-terminus assumed; bridges inferred)
MIC (Eschericia coli ST131): 1 µg/mL (≈ 0.855 µM) | MIC [1]: 0.5 µg/mL (≈ 0.428 µM) | effect on peritoneal titers (E. coli ESBL20150072; 24 mg/kg IP at 1 and 3 h, mcr-1 genotype): no effect | bacterial blood stream titers (E. coli ESBL20150072; colistin 24 mg/kg, similar to vehicle control): ~1×10^6 CFU/ml | MIC [2]: 1 µg/mL (≈ 0.855 µM) | MIC [3]: 0.125-0.25* μg/ml | MIC [4]: 0.5 µg/mL (≈ 0.428 µM) | MIC [5]: 0.5 µg/mL (≈ 0.428 µM) | MIC [6]: 128 µg/mL (≈ 109 µM) | cell viability after treatment (E. coli ATCC 25922 [7]; 1xMIC): reduction in CFU to the detection limit | cell viability after treatment (E. coli ATCC 25922 [7]; 3xMIC, over the first 5 hours): reduction in CFU to the detection limit | MIC (Eschericia coli AMA 817): 0.125 µg/mL (≈ 0.107 µM) | MIC [8]: >256 µg/mL | MIC (Eschericia coli ML-35p): 0.25 µg/mL (≈ 0.214 µM) | MIC (Eschericia coli MG1655): 0.25 µg/mL (≈ 0.214 µM) | MIC [9]: 0.5 µg/mL (≈ 0.428 µM) | reduction of peritoneal bacterial titers relative to saline control (A. baumannii ATCC 19606; after 5 hours): 3-4 log | peritoneal bacterial titers (A. baumannii ATCC 19606; after 5 hours, saline control around 1×10^8 CFU/ml): 1×10^3-1×10^4 CFU/ml | bacterial blood titers (A. baumannii ATCC 19606; detection limit 50 CFU/ml): reduce CFU/ml to the detection limit | peritoneal bacterial titers compared with ChIP 5 mg/kg (2 logs reduction, 1-5×10^5 CFU/ml) (E. coli ATCC 25922 [10]): similar | MIC (P. aeruginosa B3-CFI): >256 µg/mL | MIC [11]: 2 µg/mL (≈ 1.71 µM) | MIC [12]: >256 µg/mL | MIC [13]: 0.5 µg/mL (≈ 0.428 µM) | MIC [14]: >256 µg/mL | MIC [15]: >256 µg/mL | MIC [16]: 64 µg/mL (≈ 54.7 µM) | MIC [17]: 0.5 µg/mL (≈ 0.428 µM) | MIC [18]: 0.5 µg/mL (≈ 0.428 µM) | MIC [19]: >256 µg/mL
